The values that follow come from patent US7919268B2, “Reducing sample turbidity in measurement of enzymatic activity in cell lysates” (Roche Diagnostics Operations, Inc., priority 2005, dated 2011).

Counter-ions that a name gives are not always drawn. Like-named read-outs stand apart in the source and are kept apart here.

Assay [1] concerns human suspension cell line U 937. The assay is described as follows: Absorption of cells at 690 nm after treatment with different reagents. The assay is classed as cell-based. The following applies: reagent final concentration 1% (v/v). The procedure:
The human suspension cell line U 937 was cultured in RPMI 1640 medium (Sigma Company) containing 10% foetal calf serum and 2 mM glutamine. The cells were then washed in fresh RPMI medium and adjusted to 25,000, 50,000 and 100,000 cells/100 μl. 100 μl thereof was in each case transferred to a 96-well standard microtitre plate. 50 μl RPMI medium containing the appropriate reagents was added by pipette to each of the cell solutions.
The absorption of each well was measured at a wavelength of 690 nm after 5 min and 75 min incubation.

Assay [2] relates to LDH. The following applies: 0.2 M HCl, Triton X100 1% (v/v). The procedure: In another experiment HCl and NaOH were used as a stop reagent.
For this purpose cell-free lysates each of 1000 cells were used in an LDH test with the components from the Cytotoxicity Detection Kit (LDH) containing the modified dye solution. After a reaction time of 30 min different stop reagents were added to these mixtures and the absorption was monitored at 492 nm (the absorption maximum of reduced INT).

Assay [3] deals with LDH. The assay is classed as biochemical, human. The note with it: SDS 3% (v/v), sodium oxamate 15 mM, Triton X100 1% (v/v); for Absorption 0 min after adding stop reagent / Absorption 30 min after adding stop reagent / Absorption 120 min after adding stop reagent: 492 nm, lysate of 5000 cells, reaction time 5 min.
Where [4] appears, read: 492 nm, lysate of 1000 cells, reaction time 30 min.

For the compound `CCCCCCCCCCCCCCCC[N+](C)(C)C.[Br-]` [CTAB, cetyltrimethylammonium bromide], the “Absorption after 5 min” value in assay [1] (25 000 U 937 cells) was 0.006; in assay [1] (50 000 U 937 cells) it was 0.031; in assay [1] (100 000 U 937 cells) it was 0.025. The “Absorption after 75 min” value in assay [1] (25 000 U 937 cells) is 0.003; in assay [1] (50 000 U 937 cells) it was 0.014; in assay [1] (100 000 U 937 cells) it was 0.018.
Turning to `CCCCCCCCCCCC[N+](C)(C)C.[Br-]` [DTAB, dodecyltrimethylammonium bromide], the “Absorption after 5 min” value in assay [1] (25 000 U 937 cells) is 0.005; in assay [1] (50 000 U 937 cells), 0.012; in assay [1] (100 000 U 937 cells), 0.024. Besides, the “Absorption after 75 min” value worked out at 0.006 in assay [1] (25 000 U 937 cells), 0.011 in assay [1] (50 000 U 937 cells) and 0.021 in assay [1] (100 000 U 937 cells).
Regarding `Cl` [HCl], the “Termination of the LDH reaction (in words)” value (shortened to “Termination”) with LDH [2] is given as “suitable stop reagent”. Also, in the assay on LDH [2] (setting [4]), the “Absorption 0 min after adding stop reagent” value (shortened to “Absorption 0 min”) amounted to 0.275, the “Absorption 30 min after adding stop reagent” value (from here on “Absorption 30 min”) stood at 0.271 and the “Absorption 120 min after adding stop reagent” value (from here on “Absorption 120 min”) was 0.261.
Consider `CCCCCCCCCCCCN(C)CC(=O)O` [N-laurylsarcosine], for which the “Absorption after 5 min” value in assay [1] (25 000 U 937 cells) was 0.001; in assay [1] (50 000 U 937 cells), 0.003; in assay [1] (100 000 U 937 cells), 0.012. Moreover, the “Absorption after 75 min” value in assay [1] (25 000 U 937 cells) stood at 0.002; in assay [1] (50 000 U 937 cells), 0.004; in assay [1] (100 000 U 937 cells) it was 0.013.
Take `CCCCCCCCCCCCOS(=O)(=O)[O-].[Na+]` [SDS, sodium dodecyl sulphate]: in assay [1] (25 000 U 937 cells), the “Absorption after 5 min” value is 0.002 and the “Absorption after 75 min” value is listed as 0.003. Also, in assay [1] (50 000 U 937 cells), the “Absorption after 5 min” value was 0.006 and the “Absorption after 75 min” value is reported as 0.006. In addition, in assay [1] (100 000 U 937 cells), the “Absorption after 5 min” value came out at 0.010 and the “Absorption after 75 min” value was found to be 0.010. For the same compound, in the assay on LDH [3], the “Absorption 0 min” value is 0.113, the “Absorption 30 min” value came out at 0.113, the “Absorption 120 min” value is on record as 0.105 and the “Termination” value is recorded as “stop the LDH reaction”.
Regarding `NC(=O)C(=O)[O-].[Na+]` [sodium oxamate], in the assay with LDH [3], the “Absorption 0 min” value is on record as 0.113, the “Absorption 30 min” value came to 0.127, the “Absorption 120 min” value stood at 0.179 and the “Termination” value is on record as “stop the LDH reaction”.
Consider “octylphenoxypolyethoxyethanol [Triton X100]”, for which the “Absorption after 5 min” value worked out at 0.001 in assay [1] (25 000 U 937 cells), 0.004 in assay [1] (50 000 U 937 cells) and 0.008 in assay [1] (100 000 U 937 cells). Also, the “Absorption after 75 min” value turned out to be 0.001 in assay [1] (25 000 U 937 cells), 0.004 in assay [1] (50 000 U 937 cells) and 0.008 in assay [1] (100 000 U 937 cells).
